Consider two compounds from US20100234238A1, “METHOD FOR PROFILING KINASE INHIBITORS” (Janssen Pharmaceutica N V, priority 2006, published 2010).

For assay [1], the system named is tyrosine kinase activity in cell line lysates. Kind of assay: Peptide array profiling of 9 cell line lysates in the presence of MTKI or Tarceva. The format is biochemical. Particulars: GTL16 lysates; 5 μM. How it is done: To test whether other EGFR inhibitors, related to MTKI, such as Tarceva (erlotinib; OSI pharmaceuticals), are also amenable to this response prediction methodology, 9 cell lines were profiled in the presence of MTKI, or Tarceva (5 μM in both cases). […] The value of the previously derived MTKI prediction peptides is illustrated in Tables 6A to C. Based on these peptides also response to Tarceva can be predicted with identical accuracy as for MTKI (and with the same false predictions, in casu H2009 and MOLT4).

Assay [2] deals with HGF-induced colony formation. Kind of assay: HGF-induced colony formation (responsiveness to 605). The format is cell-based. On the set-up: key: R = Responder to cMET; NR = Non-Responder to cMET.
Assay [3] has as its target Ron kinase (Homo sapiens, UniProt Q04912). In words: Purified Ron kinase inhibition. Particulars: 1 μM. The format is biochemical. From the text:
(§1) As shown in Example 7, clear-cut differences in peptide phosphorylation inhibition by 605 could be identified in the responder lysates versus non-responder lysates. Note that the cMet signature peptide set features two peptides derived from Ron, the closest homologue to cMet. […] The 605 signature peptides show no overlap at all with the MTKI signature peptides set, consistent with the absence of any overlap in kinase specificity between MTKI and 605.

Assay [4] deals with cMet kinase activity in cell lysates. Kind of assay: 140-tyrosine peptide array profiling of cell lysates with cMET inhibitor 605. The format is biochemical. Particulars: responder cell lysates; 1 μM compound.
Excerpt: To examine whether the currently available 140-tyrosine peptide arrays from Pamgene will also detect other kinase activities then those described above, another compound was profiled using the same methodology: this is an exquisitely selective inhibitor of the cMET receptor tyrosine kinase (see US2007 0203136 A1) and with formula: […]
as §1

Chain of Ron kinase (Q04912 25-1400): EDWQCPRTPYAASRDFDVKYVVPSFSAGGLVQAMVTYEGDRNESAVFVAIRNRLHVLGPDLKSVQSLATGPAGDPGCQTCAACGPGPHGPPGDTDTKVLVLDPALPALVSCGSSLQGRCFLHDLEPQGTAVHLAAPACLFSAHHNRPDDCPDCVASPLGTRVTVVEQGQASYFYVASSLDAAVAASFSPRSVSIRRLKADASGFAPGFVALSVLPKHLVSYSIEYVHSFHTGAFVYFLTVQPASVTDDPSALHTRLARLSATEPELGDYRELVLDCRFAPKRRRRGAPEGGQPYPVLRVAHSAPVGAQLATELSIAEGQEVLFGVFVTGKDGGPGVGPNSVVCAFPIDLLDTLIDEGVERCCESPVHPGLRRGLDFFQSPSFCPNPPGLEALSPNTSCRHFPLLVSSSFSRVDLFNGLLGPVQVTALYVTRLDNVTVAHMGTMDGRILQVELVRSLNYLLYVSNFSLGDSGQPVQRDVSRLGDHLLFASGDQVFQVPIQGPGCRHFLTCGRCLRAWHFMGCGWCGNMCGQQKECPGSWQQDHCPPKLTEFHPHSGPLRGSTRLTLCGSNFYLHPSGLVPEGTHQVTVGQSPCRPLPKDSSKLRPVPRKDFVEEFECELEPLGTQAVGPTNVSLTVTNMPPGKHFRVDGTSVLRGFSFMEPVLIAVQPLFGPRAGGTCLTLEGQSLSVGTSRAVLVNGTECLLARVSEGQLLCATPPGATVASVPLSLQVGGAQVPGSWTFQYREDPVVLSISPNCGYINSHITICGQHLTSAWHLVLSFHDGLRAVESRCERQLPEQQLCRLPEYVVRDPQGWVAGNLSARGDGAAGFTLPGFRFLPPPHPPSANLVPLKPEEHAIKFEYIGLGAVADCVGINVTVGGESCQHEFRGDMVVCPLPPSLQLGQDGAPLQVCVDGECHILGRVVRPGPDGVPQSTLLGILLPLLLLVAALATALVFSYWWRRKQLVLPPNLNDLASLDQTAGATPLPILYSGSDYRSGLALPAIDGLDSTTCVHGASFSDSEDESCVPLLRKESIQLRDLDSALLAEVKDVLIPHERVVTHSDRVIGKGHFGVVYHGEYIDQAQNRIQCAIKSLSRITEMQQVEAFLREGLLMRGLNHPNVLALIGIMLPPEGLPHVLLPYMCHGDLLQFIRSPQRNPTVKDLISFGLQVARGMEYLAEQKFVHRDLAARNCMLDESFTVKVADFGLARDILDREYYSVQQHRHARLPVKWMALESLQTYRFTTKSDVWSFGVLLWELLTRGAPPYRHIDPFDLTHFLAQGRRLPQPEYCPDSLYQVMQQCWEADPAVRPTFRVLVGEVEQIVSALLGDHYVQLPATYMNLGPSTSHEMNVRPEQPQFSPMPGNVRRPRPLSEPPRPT

Regarding `C#Cc1cccc(Nc2ncnc3cc(OCCOC)c(OCCOC)cc23)c1` [Tarceva, reference compound], the “activity in lysate inhibition profile compared to MTKI” value in assay [1] is “additional activity”.
For the compound `Cn1cc(-c2ccc3nnc(C(F)(F)c4ccc5ncccc5c4)n3n2)cn1` [compound 605], the response status result in assay [2] (A549 cell line) is on record as “NR”; in assay [2] (Caco2 cell line) it was “NR”; in assay [2] (H322 cell line), “NR”; in assay [2] (H441 cell line), “R”; in assay [2] (H1792 cell line), “R”; in assay [2] (H2106 cell line), “NR”. In addition, the response status entry was “NR” in assay [2] (H2122 cell line); “R” in assay [2] (Kato2 cell line); “R” in assay [2] (MKN45 cell line); “NR” in assay [2] (N87 cell line); “R” in assay [2] (SNU5 cell line); “NR” in assay [2] (SNU484 cell line). For the same compound, the response status result in assay [2] (WIDR cell line) is reported as “R”; in assay [2] (YKG cell line) it was “NR”. In addition, in assay [3], the “inhibition of purified Ron kinase” value is “does not inhibit”. Also, the “inhibition of peptide phosphorylation” value in assay [4] is listed as “significant inhibition”.
